Reference: patent US20240415915A1, “TRADITIONAL CHINESE MEDICINE FERMENTED PREPARATION FOR PREVENTING AND TREATING GOUT, ITS PREPARATION METHOD AND APPLICATION” (priority 2023, published 2024)

System: mice with hyperuricemia
Test: Effect on serum uric acid (UA) levels in mice with hyperuricemia
Format: in vivo
Settings: 0.02 g/kg orally once a day, 7 days; hypoxanthine + potassium oxonate model; model group 768.30, blank 145.80
Text: 60 mice (each mouse with a weight of (20±2) g) are taken and randomly divided into 6 groups, with 10 mice in each group, denoted as a blank group, a model group, a benzbromarone group, a high dose traditional Chinese medicine fermented preparation group, a medium dose traditional Chinese medicine fermented preparation group, and a low dose traditional Chinese medicine fermented preparation group. After 5 days of adaptive breeding, except for the blank group (injected with an equal volume of physiological saline), the mice in other groups are injected intraperitoneally with 0.3 g/kg/mouse of hypoxanthine +0.05 g/kg/mouse of potassium oxonate (i.e., oxonic acid potassium salt) daily for model replication, for 7 consecutive days. At the same time, the mice in the benzbromarone group are administered orally at a dose of 0.02 g/kg/mouse once a day, the mice in the high, medium and low dose traditional Chinese medicine fermented preparation groups are administered orally at a dose of 2 mL/kg/mouse, 1 mL/kg/mouse, and 0.5 mL/kg/mouse once, respectively, while the mice in the blank group and the model group are given physiological saline (1 mL/kg) orally, for 7 consecutive days. After 7 days, tail vein blood is collected from the mice in all groups, and then centrifuged to separate […] to obtain serum, the serum is taken to measure serum UA levels.

CCc1oc2ccccc2c1C(=O)c1cc(Br)c(O)c(Br)c1 [Benzbromarone, benzbromarone]
Serum UA level: 302.30 µmol/L
